Like-named read-outs stand apart in the source and are kept apart here.
Columns and labels:
kinase domain of PDGFRβ = biological target: T1, kinase domain of PDGFRβ (Homo sapiens, UniProt P09619); test: Inhibition of PDGFRb kinase signaling in an in vitro biochemical assay (alphascreen); conditions: tested at about 1 μM, read-out: PDGFRβ percent inhibition
T1 construct: The kinase domain of PDGFRβ was assayed in 50 mM Hepes; purchased Invitrogen P3082

[1] = biological target: T2, cytoplasmic domain of the human CSF-1R (Homo sapiens, UniProt P07333); test: In vitro kinase assay for colony stimulating factor-1 receptor (AlphaScreen); format: biochemical; conditions: tested at about 1 μM, read-out: CSF-1R percent inhibition
T2 construct: Recombinant protein corresponding to the cytoplasmic domain of the human CSF-1R; purchased Invitrogen Corporation, Carlsbad, Calif; PV3249
T2 sequence (P07333 539-972 limits assumed): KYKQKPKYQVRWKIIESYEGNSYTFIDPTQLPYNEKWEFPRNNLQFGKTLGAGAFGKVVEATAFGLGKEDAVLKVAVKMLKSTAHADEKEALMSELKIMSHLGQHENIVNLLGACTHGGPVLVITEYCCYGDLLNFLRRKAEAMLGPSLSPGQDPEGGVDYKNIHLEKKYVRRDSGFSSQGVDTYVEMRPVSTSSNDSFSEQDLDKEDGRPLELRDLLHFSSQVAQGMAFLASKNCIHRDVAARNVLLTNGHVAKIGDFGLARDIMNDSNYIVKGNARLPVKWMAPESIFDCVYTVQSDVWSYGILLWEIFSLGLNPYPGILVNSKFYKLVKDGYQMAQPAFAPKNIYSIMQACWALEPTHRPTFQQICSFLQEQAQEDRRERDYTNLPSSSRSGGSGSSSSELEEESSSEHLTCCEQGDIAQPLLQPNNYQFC
How it was run: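 Tyrosine phosphorylation of a peptide substrate by 4 nM recombinant cytoplasmic-domain enzyme is measured at 1 μM ATP in Mn2+/Mg2+-containing Hepes buffer, pH 7.5. Detection uses PT66 AlphaScreen beads after overnight incubation.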

[2] = test system: MNFS60 (murine AML cells); test: Cell viability assay in MCSF dependent MNFS60 cells (Cell Titer Glo); format: cell-based; conditions: Mus musculus, tested at about 1 μM, read-out: M-NFS-60 CP percent inhibition
How it was run: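 EC50 values reflect MCSF-driven (10 ng/ml final) proliferation over 72 hrs at 37° C., read by CellTiter-Glo. Each condition was run in triplicate.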

kinase domain of cKIT = biological target: T3, kinase domain of cKIT (Homo sapiens, UniProt P10721); test: Inhibition of cKIT kinase signaling in an in vitro biochemical assay (alphascreen); conditions: tested at about 1 μM, read-out: cKit percent inhibition
T3 construct: The kinase domain of cKIT was assayed in 50 mM Hepes; purchased Upstate 14-559
T3 sequence (P10721 589-937 limits assumed): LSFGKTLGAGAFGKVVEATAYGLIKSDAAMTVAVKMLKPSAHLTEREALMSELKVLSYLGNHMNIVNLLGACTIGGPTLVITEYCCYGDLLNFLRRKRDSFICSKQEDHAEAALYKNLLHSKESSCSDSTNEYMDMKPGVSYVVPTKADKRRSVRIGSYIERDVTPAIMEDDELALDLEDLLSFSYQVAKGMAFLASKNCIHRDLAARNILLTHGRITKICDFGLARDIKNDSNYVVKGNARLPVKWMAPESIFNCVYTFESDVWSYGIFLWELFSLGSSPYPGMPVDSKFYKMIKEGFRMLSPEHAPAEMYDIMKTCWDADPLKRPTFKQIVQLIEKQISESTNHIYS

T1 sequence (P09619 600-962 limits assumed): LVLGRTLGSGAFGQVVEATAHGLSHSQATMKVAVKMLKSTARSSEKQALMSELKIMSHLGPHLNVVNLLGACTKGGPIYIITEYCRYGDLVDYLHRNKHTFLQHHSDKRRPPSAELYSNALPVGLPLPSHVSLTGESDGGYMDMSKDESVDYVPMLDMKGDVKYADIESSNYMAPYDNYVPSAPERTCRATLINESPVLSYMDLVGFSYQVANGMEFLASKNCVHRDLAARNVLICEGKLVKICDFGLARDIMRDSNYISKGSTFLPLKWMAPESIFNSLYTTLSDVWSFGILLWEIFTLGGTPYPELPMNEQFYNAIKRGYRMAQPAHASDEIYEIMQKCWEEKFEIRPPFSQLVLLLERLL

| Structure (SMILES) | inhibition at 1 µM (kinase domain of PDGFRβ; compounds of Table 3) [%] | inhibition at 1 µM ([1]; compounds of Table 3) [%] | inhibition at 1 µM ([2]; compounds of Table 3) [%] | inhibition at 1 µM (kinase domain of cKIT; compounds of Table 3) [%] | inhibition at 1 µM (kinase domain of PDGFRβ) [%] | inhibition at 1 µM [1] [%] | inhibition at 1 µM ([2]; MNFS60 cells) [%] | inhibition at 1 µM (kinase domain of cKIT) [%] | inhibition at 1 µM ([2]; MCSF dependent MNFS60 cells) [%] |
| --- | --- | --- | --- | --- | --- | --- | --- | --- | --- |
| COc1ccccc1CNc1nc2ccc(Oc3ccnc4ccccc34)cc2s1 [Example 257, N-(2-methoxybenzyl)-6-(quinolin-4-yloxy)benzo[d]thiazol-2-amine] | 11 | 100 | 100 | 100 | – | – | – | – | – |
| CNC(=O)c1cc(Oc2ccc3nc(NCc4cc(OC)ccc4F)oc3c2)ccn1 [Compound 73, 4-[2-(2-Fluoro-5-methoxy-benzylamino)-benzooxazol-6-yloxy]-pyridine-2-carboxylic acid methylamide] | – | – | – | – | 2 | 100 | 0 | 21 | – |
| CNC(=O)c1cc(Oc2ccc3nc(N[C@H]4CCCN(C(=O)c5ccccc5)C4)sc3c2)ccn1 [Example 336, (S)-4-(2-(1-benzoylpiperidin-3-ylamino)benzo[d]thiazol-6-yloxy)-N-methylpicolinamide] | – | – | – | – | 14 | 94 | – | 23 | 17 |
| CNC(=O)c1cc(Oc2ccc3nc(NC4CC=CCC4)oc3c2)ccn1 (centres unmarked) [Compound 70, 4-[2-(Cyclohex-3-enylamino)-benzooxazol-6-yloxy]-pyridine-2-carboxylic acid methylamide] | – | – | – | – | 0 | 99 | 0 | 0 | – |
| CC(C)CCNc1nc2ccc(Oc3ccnc4ccccc34)cc2s1 [Example 253, N-isopentyl-6-(quinolin-4-yloxy)benzo[d]thiazol-2-amine] | 6 | 100 | 86 | 100 | – | – | – | – | – |
| CNC(=O)c1cc(Oc2ccc3nc(NCC4CCOCC4)sc3c2)ccn1 [Compound 141, 4-{2-[(tetrahydro-pyran-4-ylmethyl)-amino]-benzothiazol-6-yloxy}-pyridine-2-carboxylic acid methylamide] | – | – | – | – | 0 | 100 | 22 | 1 | – |
| CNC(=O)c1cc(Oc2ccc3nc(N[C@H]4CCC[C@@H]4O)sc3c2)ccn1 [Example 320, 4-(2-((1S,2S)-2-hydroxycyclopentylamino)benzo[d]thiazol-6-yloxy)-N-methylpicolinamide] | – | – | – | – | 20 | 100 | – | 16 | 25 |
| CNC(=O)c1cc(Oc2ccc3nc(NCc4c(F)cccc4OC)oc3c2)ccn1 [Compound 116, 4-[2-(2-Fluoro-6-methoxy-benzylamino)-benzooxazol-6-yloxy]-pyridine-2-carboxylic acid methylamide] | – | – | – | – | 18 | 100 | 10 | 100 | – |
| CNC(=O)c1cc(Oc2ccc3nc(NCC(O)COc4ccccc4)sc3c2)ccn1 (centres unmarked) [Compound 124] | 10 | 99 | 18 | 0 | – | – | – | – | – |
| OC[C@H](Cc1ccccc1)Nc1nc2ccc(Oc3ccnc4ccccc34)cc2s1 [Example 242] | 35 | 100 | 51 | 97 | – | – | – | – | – |
| Fc1cc2nccc(Oc3ccc4nc(NCC5CCCCC5)sc4c3)c2cc1F [Example 211] | 50 | 100 | 23 | 85 | – | – | – | – | – |
| CNC(=O)c1cc(Oc2ccc3nc(NCc4ccccc4N(C)C)sc3c2)ccn1 [Compound 144, 4-[2-(2-Dimethylamino-benzylamino)-benzothiazol-6-yloxy]-pyridine-2-carboxylic acid methylamide] | – | – | – | – | 100 | 99 | 100 | 100 | – |
| CNC(=O)c1cc(Oc2ccc3nc(NCCc4ccccn4)sc3c2)ccn1 [Example 314, N-methyl-4-(2-(2-(pyridin-2-yl)ethylamino)benzo[d]thiazol-6-yloxy)picolinamide] | – | – | – | – | 12 | 99 | – | 13 | 20 |
| CC[C@H](C)[C@@H](CO)Nc1nc2ccc(Oc3ccnc4ccccc34)cc2s1 [Example 234, (2S,3S)-3-methyl-2-(6-(quinolin-4-yloxy)benzo[d]thiazol-2-ylamino)pentan-1-ol] | 56 | 100 | 78 | 64 | – | – | – | – | – |
| CNC(=O)c1cc(Oc2ccc3nc(NCc4c(Cl)cccc4Cl)oc3c2)ccn1 [Compound 76, 4-[2-(2,6-Dichloro-benzylamino)-benzooxazol-6-yloxy]-pyridine-2-carboxylic acid methylamide] | – | – | – | – | 0 | 98 | 0 | 9 | – |
| O[C@@H]1Cc2ccccc2[C@@H]1Nc1nc2ccc(Oc3ccnc4ccccc34)cc2s1 [Example 239, (1S,2R)-1-(6-(quinolin-4-yloxy)benzo[d]thiazol-2-ylamino)-2,3-dihydro-1H-inden-2-ol] | 25 | 100 | 90 | 100 | – | – | – | – | – |
| Cc1cc(Oc2ccc3nc(NCC4CCCCC4)sc3c2)ccn1 [Example 202] | 19 | 100 | 17 | 32 | – | – | – | – | – |
| O[C@@H]1CCCC[C@H]1Nc1nc2ccc(Oc3ccnc(-c4ccc(F)cc4)c3)cc2s1 [Example 288, (1R,2R)-2-(6-(2-(4-fluorophenyl)pyridin-4-yloxy)benzo[d]thiazol-2-ylamino)cyclohexanol] | 24 | 100 | 70 | 78 | – | – | – | – | – |
| C[C@@H](Nc1nc2ccc(Oc3ccnc4ccccc34)cc2s1)C1CCCCC1 [Example 243, (R)-N-(1-cyclohexylethyl)-6-(quinolin-4-yloxy)benzo[d]thiazol-2-amine] | 69 | 100 | 76 | 100 | – | – | – | – | – |
| c1ccc2c(Oc3ccc4nc(NCCC5CCOCC5)sc4c3)ccnc2c1 [Example 252, 6-(quinolin-4-yloxy)-N-(2-(tetrahydro-2H-pyran-4-yl)ethyl)benzo[d]thiazol-2-amine] | 6 | 100 | 81 | 100 | – | – | – | – | – |
| O[C@@H]1CCCC[C@H]1Nc1nc2ccc(Oc3ccncc3Br)cc2s1 [Example 224, (1R,2R)-2-(6-(3-bromopyridin-4-yloxy)benzo[d]thiazol-2-ylamino)cyclohexanol] | 0 | 100 | 33 | 26 | – | – | – | – | – |
| OC[C@@H](Nc1nc2ccc(Oc3ccnc4ccccc34)cc2s1)c1ccccc1 [Example 235, (S)-2-phenyl-2-(6-(quinolin-4-yloxy)benzo[d]thiazol-2-ylamino)ethanol] | 81 | 100 | 100 | 100 | – | – | – | – | – |
| O[C@@H]1CCCC[C@H]1Nc1nc2ccc(Oc3ccnc(-c4cncs4)c3)cc2s1 [Compound 157] | 17 | 100 | 42 | 43 | – | – | – | – | – |

Source: patent US8173689B2 (Novartis AG, priority 2006, dated 2012)
